From article PMC8305532, “Bufadienolides from the Skin Secretions of the Neotropical Toad Rhinella alata (Anura: Bufonidae): Antiprotozoal Activity against Trypanosoma cruzi” (Molecules, 2021)
Values after ≈ are worked out from the molar mass of the structure shown. Read-outs that look alike come from different tables or passages of the source.

What was measured:
Vero cells = assay: Mammalian cytotoxicity, MTT assay; assay type: cell-based, monkey; settings: Primates, 120 h, read-out: IC50 Vero
Procedure: For cytotoxicity assays, Vero cells were obtained from the American Type Culture Collection (ATCC, Manassas, VA, USA) and cultivated in 96-well plates at 37 °C under a 5% CO2 atmosphere, using RPMI-1640 medium (Sigma-Aldrich, Saint Louis, MO, USA) sterilized with 0.05% gentamicin (50 mg/mL) and supplemented with 10% FBS (fetal bovine serum; Gibco, Invitrogen, Carlsbad, CA, USA). Vero cells were allowed to adhere for 24 h prior to incubation for five days with the samples. During the treatment, DMSO was used as negative control, and samples were assayed at four different concentrations. After incubation, MTT (3-(4,5-di-methyl-thiazol-2-yl)-2,5-di-phenyl-tetra-zolium bromide) was added to each well, and absorbance was determined 4 h later at 570 nm using a color plate reader. Cytotoxicity was evaluated colorimetrically by calculating the ability of the remnant living Vero cells to reduce the pale yellow MTT into the black-purple formazan product, as described earlier. All bioassays were performed in duplicate and the IC50 values were determined employing the Data Analysis complement Wizard of Excel 2000 (Microsoft, Seattle, WA, USA).

T. cruzi trypomastigotes [1] = assay: Antiprotozoal activity against T. cruzi (β-galactosidase reporter strain Tulahuen clone C4, in infected Vero cells); assay type: cell-based; settings: Trypanosoma cruzi, 120 h, read-out: IC50 T. cruzi
Procedure: The evaluation of the antiprotozoal activity against trypanosomes was carried out using the recombinant strain Tulahuen clone C4 of T. cruzi trypomastigotes (ATCC, Manassas, VA, USA). This strain expresses the β-galactosidase enzyme used as a reporter to assess the viability of the trypanosomatid. The parasites were maintained at 37 °C under a 5% CO2 atmosphere in RPMI-1640 culture medium with L-glutamine, 4-(2-Hydroxyethyl)-piperazine-1-ethanesulfonic acid (HEPES) buffer, NaHCO3, 10% FBS, and 0.05% gentamicin (50 mg/mL) as supplements. Vero cells were cultured for 24 h, and one day prior to the experiment, the cells were infected with trypomastigotes. After additional 24 h of infection, bufadienolides were dissolved in DMSO and tested at four different concentrations by duplicate for five days. Benznidazole was used as the positive control. To determine antitrypanosomal activity, 25 µL of chlorophenol-red-β-D-galactopyranoside (Roche Applied Science) (900 µM) were added to each well and allowed to react with the β-galactosidase of the remaining living parasites for 4.5 h. Absorbance was calculated at 570 nm using a microtiter plate reader (Sinergy HT, BioTek Instruments Inc, Winooski, VT, USA).
(§1) All antitrypanosomal and anticancer assays represent independent analysis. The data are presented as the inhibitory concentration (IC50) ± standard error (SE). The statistical analysis for the IC50 values was carried out employing the Data Analysis complement Wizard of Excel 2000 by adjusting the dose-response curve to a sigmoidal model (Microsoft, Seattle, WA, USA).

T. cruzi trypomastigotes [2] = settings: cited from earlier work
MCF-7 = assay: Anticancer assay (SRB), MCF-7; assay type: cell-based; settings: MCF7, human breast cancer line, 48 h, IC50 ± standard error
Procedure: (§2) MCF-7, NCI-H460, and SF-268 cancer cells lines were obtained from the American Type Culture Collection (ATCC, Manassas, VA, USA) and cultivated in 96-well plates at 37 °C under a 5% CO2 atmosphere using RPMI-1640 medium (Sigma-Aldrich, USA) sterilized with 0.05% gentamicin (50 mg/mL), supplemented with 10% FBS (fetal bovine serum; Gibco, Invitrogen, Carlsbad, CA, USA), and allowed to adhere for 24 h. After incubation, cancer cells were treated with bufadienolides dissolved in DMSO at five different concentrations and analyzed by duplicate for 48 h. RPMI without cells was used as color control and doxorubicin was used as inhibition control. After treatment, cells were fixed with 25% tricholoroacetic acid (TCA) for 60 min, air dried, and stained with sulforhodamine-B (SRB). Washes with acetic acid at 1% were carried out to eliminate excess of SRB. Tris was added to dissolve the bound SRB. The plate was shaken and absorbance was read at 515 nm using a color plate reader.
as §1

SF-268 = assay: Anticancer assay (SRB), SF-268; assay type: cell-based; settings: human central nervous system cancer line, 48 h, IC50 ± standard error
Procedure: as §2, §1

NCI-H460 = assay: Anticancer assay (SRB), NCI-H460; assay type: cell-based; settings: human lung cancer line, 48 h, IC50 ± standard error
Procedure: as §2, §1

[3] = system: (Na+-K+) ATPase from T. cruzi; design: method as in PMID 16797482; settings: cloned and characterized enzyme; cited from earlier work
liver cancer cells = system: liver cancer cells; design: method as in PMID 20839128; settings: concentration at which growth inhibition was induced; cited from earlier work
[4] = epithelial cells from monkey kidney (ATCC), five days incubation, MTT, IC50 ± standard error
[5] = trypomastigotes, five days treatment, IC50 ± standard error

With `CC12CCC(OC(=O)CCCCC(=O)NC(CCCNC(=N)N)C(=O)O)CC1CCC1C2CCC2(C)C(c3ccc(=O)oc3)C(O)CC12O` (stereo not drawn) [Compound 1, 16β-hydroxy-desacetyl-bufotalin-3-adipoyl-arginine ester] the IC50 (Vero cells) was 1890 ± 630 nM and the IC50 (T. cruzi trypomastigotes [1]) was 8000 ± 750 nM.

Work on `CC(=O)O[C@H]1[C@H]2O[C@]23[C@@H]2CC[C@@H]4C[C@@H](OC(=O)CCCCCC(=O)NC(CCCNC(=N)N)C(=O)O)CC[C@]4(C)[C@H]2CC[C@]3(C)[C@H]1c1ccc(=O)oc1` (some centres unmarked) [Compound 8, Cinobufagin-3-pimeloyl-arginine ester] yielded an IC50 (Vero cells) of 720 ± 310 nM and an IC50 (T. cruzi trypomastigotes [1]) of 14700 ± 1800 nM.

`CC(=O)O[C@H]1[C@H]2O[C@]23[C@@H]2CC[C@@H]4C[C@@H](OC(=O)CCCCC(=O)NC(CCCNC(=N)N)C(=O)O)CC[C@]4(C)[C@H]2CC[C@]3(C)[C@H]1c1ccc(=O)oc1` (some centres unmarked) [Compound 7, Cinobufagin-3-adipoyl-arginine ester] showed an IC50 (Vero cells) of 3600 ± 1640 nM and an IC50 (T. cruzi trypomastigotes [1]) of 16700 ± 2930 nM.

In the case of `C[C@]12CC[C@H]3[C@@H](CC[C@]4(O)C[C@@H](O)CC[C@]34C=O)[C@@]1(O)CC[C@@H]2c1ccc(=O)oc1` [hellebrigenin], the “IC50 against T. cruzi trypomastigotes” value (T. cruzi trypomastigotes [2]; trypomastigotes, ref Tempone et al. (2008) [13]) is listed as 91.7 µg/mL (≈ 220 µM).

Work on `COc1cccc2c1C(=O)c1c(O)c3c(c(O)c1C2=O)C[C@@](O)(C(=O)CO)C[C@@H]3O[C@H]1C[C@H](N)[C@H](O)[C@H](C)O1` [doxorubicin, reference compound] yielded an IC50 (Vero cells; [4]) of 230 ± 40 nM, an IC50 (MCF-7) of 76 ± 3.01 nM and an IC50 (SF-268) of 610 ± 57 nM. For the same compound, the IC50 (NCI-H460) was 59 ± 5.06 nM.

With `C[C@]12CC[C@H](OC(=O)CCCCCC(=O)NC(CCCNC(=N)N)C(=O)O)CC1CCC1C2CC[C@]2(C)[C@@H](c3ccc(=O)oc3)[C@@H](O)C[C@]12O` (stereo partly drawn) [Compound 3, 16β-hydroxy-desacetyl-bufotalin-3-pimeloyl-arginine ester] the IC50 (Vero cells) was 240 ± 200 nM and the IC50 (T. cruzi trypomastigotes [1]) was 8700 ± 1250 nM.

In the case of `CC(=O)O[C@H]1C[C@]2(O)[C@@H]3CC[C@@H]4C[C@@H](O)CC[C@]4(C)[C@H]3CC[C@]2(C)[C@H]1c1ccc(=O)oc1` [Compound 2, Bufotalin], the IC50 (Vero cells; [4]) is reported as 46000 ± 6290 nM, the IC50 (MCF-7) is reported as 94 ± 0.03 nM and the IC50 (T. cruzi trypomastigotes [1]; [5]) is reported as 19600 ± 3380 nM. For the same compound, the IC50 (SF-268) was 20500 nM and the IC50 (NCI-H460) was 229 ± 0.08 nM.

Compound `CC(=O)O[C@H]1C[C@]2(O)[C@@H]3CC[C@@H]4C[C@@H](OC(=O)CCCCCCC(=O)NC(CCCNC(=N)N)C(=O)O)CC[C@]4(C)[C@H]3CC[C@]2(C)[C@H]1c1ccc(=O)oc1` (some centres unmarked) [Compound 6, Bufotalin-3-suberoyl-arginine ester] has an IC50 (Vero cells) of 340 ± 200 nM and an IC50 (T. cruzi trypomastigotes [1]) of 4900 ± 1000 nM.

In the case of `C[C@]12CC[C@H](O)C[C@@]1(O)CC[C@@H]1[C@@H]2CC[C@]2(C)[C@@H](c3ccc(=O)oc3)CC[C@]12O` [telocinobufagin], the “IC50 against T. cruzi trypomastigotes” value (T. cruzi trypomastigotes [2]) is given as greater than 200 µg/mL.

For `C[C@@H]1O[C@@H](O[C@H]2C[C@@H](O)[C@]3(CO)[C@H]4[C@H](O)C[C@]5(C)[C@@H](C6=CC(=O)OC6)CC[C@]5(O)[C@@H]4CC[C@]3(O)C2)[C@H](O)[C@H](O)[C@H]1O` [ouabain], the “inhibition of enzymatic activity of T. cruzi (Na+-K+) ATPase” value [3] is listed as “not inhibited”.

In the case of `CC(=O)O[C@H]1C[C@]2(O)[C@@H]3CC[C@@H]4C[C@@H](OC(=O)CCCCCC(=O)NC(CCCNC(=N)N)C(=O)O)CC[C@]4(C)[C@H]3CC[C@]2(C)[C@H]1c1ccc(=O)oc1` (some centres unmarked) [Compound 4, Bufotalin-3-pimeloyl-arginine ester], the IC50 (Vero cells) is given as 170 ± 90 nM, the IC50 (T. cruzi trypomastigotes [1]) is given as 4600 ± 1750 nM and the “growth inhibition against liver cancer cells” value (liver cancer cells) is given as 7.24 µM.

Work on `CC(=O)O[C@H]1[C@H]2O[C@]23[C@@H]2CC[C@@H]4C[C@@H](O)CC[C@]4(C)[C@H]2CC[C@]3(C)[C@H]1c1ccc(=O)oc1` [Compound 10, Cinobufagin] yielded an IC50 (Vero cells; [4]) of 54100 ± 4730 nM, an IC50 (MCF-7) of 9 ± 0.01 nM and an IC50 (T. cruzi trypomastigotes [1]; [5]) of 29000 ± 2570 nM. The IC50 (SF-268) was 4680 nM and the IC50 (NCI-H460) was 14 ± 0.01 nM.

With `O=C(Cn1ccnc1[N+](=O)[O-])NCc1ccccc1` [benznidazole, reference compound] the IC50 (T. cruzi trypomastigotes [1]; [5]) was 2730 ± 160 nM.

In the case of `C[C@]12CC[C@H](OC(=O)CCCCCCC(=O)NC(CCCNC(=N)N)C(=O)O)CC1CCC1C2CC[C@]2(C)[C@@H](c3ccc(=O)oc3)[C@@H](O)C[C@]12O` (stereo partly drawn) [Compound 5, 16β-hydroxy-desacetyl-bufotalin-3-suberoyl-arginine ester], the IC50 (Vero cells) is reported as 810 ± 350 nM and the IC50 (T. cruzi trypomastigotes [1]) is reported as 6900 ± 950 nM.

`CC(=O)O[C@H]1[C@H]2O[C@]23[C@@H]2CC[C@@H]4C[C@@H](OC(=O)CCCCCCC(=O)NC(CCCNC(=N)N)C(=O)O)CC[C@]4(C)[C@H]2CC[C@]3(C)[C@H]1c1ccc(=O)oc1` (some centres unmarked) [Compound 9, Cinobufagin-3-suberoyl-arginine ester] showed an IC50 (Vero cells) of 250 ± 80 nM and an IC50 (T. cruzi trypomastigotes [1]) of 19000 ± 5730 nM.
